Where two headings read alike, the source gives them in different places.
Experiments:
IR-Grb14 interaction = biological target: T1, IR-Grb14 interaction (Homo sapiens, UniProt P06213); experiment: IR-Luc/Grb14-YFP BRET technique in a cell-free system; format: binding; conditions: for remaining activity at 50 µM / % BRET signal/DMSO control: insulin stimulation (100 nM)
T1 construct: a vector encoding the insulin receptor fused to the luciferase (IR-Luc); made in house; host or cells: HEK293T (transfected); IR-Luc was partially purified on wheat germ lectin sepharose; Grb14-YFP was used as crude lysate
T1 sequence (P06213 763-1382 limits assumed): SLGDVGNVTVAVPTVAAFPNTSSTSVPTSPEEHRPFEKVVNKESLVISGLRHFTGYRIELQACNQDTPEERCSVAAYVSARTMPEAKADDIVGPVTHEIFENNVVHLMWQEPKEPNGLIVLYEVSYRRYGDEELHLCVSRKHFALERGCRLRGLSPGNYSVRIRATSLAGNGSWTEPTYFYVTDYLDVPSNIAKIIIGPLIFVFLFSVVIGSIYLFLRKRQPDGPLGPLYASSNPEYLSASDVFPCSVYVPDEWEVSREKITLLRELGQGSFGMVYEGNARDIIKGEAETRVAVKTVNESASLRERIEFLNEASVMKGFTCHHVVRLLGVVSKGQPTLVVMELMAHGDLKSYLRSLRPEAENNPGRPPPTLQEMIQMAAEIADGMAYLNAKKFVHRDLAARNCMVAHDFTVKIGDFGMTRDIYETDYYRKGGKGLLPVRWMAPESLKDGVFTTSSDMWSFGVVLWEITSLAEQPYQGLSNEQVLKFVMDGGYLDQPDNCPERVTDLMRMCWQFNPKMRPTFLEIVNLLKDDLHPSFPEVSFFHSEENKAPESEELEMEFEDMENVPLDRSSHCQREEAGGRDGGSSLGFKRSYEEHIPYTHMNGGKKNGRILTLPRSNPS
T1 sequence (P06213 28-758 partner limits assumed): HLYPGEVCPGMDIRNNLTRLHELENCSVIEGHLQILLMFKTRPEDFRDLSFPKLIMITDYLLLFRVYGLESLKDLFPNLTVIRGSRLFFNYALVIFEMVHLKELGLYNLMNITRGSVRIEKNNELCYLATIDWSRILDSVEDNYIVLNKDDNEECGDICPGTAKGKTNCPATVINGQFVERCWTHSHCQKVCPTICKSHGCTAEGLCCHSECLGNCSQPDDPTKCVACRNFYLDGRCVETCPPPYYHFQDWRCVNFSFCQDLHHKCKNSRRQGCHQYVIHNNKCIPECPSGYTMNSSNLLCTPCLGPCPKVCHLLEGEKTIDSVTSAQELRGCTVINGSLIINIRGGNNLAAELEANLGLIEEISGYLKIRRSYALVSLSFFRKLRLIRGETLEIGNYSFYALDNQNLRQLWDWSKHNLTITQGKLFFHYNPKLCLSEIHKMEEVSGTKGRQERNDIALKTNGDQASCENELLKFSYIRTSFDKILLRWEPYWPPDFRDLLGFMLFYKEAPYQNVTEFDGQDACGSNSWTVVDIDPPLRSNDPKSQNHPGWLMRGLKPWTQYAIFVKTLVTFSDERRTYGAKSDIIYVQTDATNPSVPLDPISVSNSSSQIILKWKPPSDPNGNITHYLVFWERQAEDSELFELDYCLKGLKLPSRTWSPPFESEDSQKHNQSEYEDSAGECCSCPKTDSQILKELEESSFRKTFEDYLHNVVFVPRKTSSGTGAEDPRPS
Experimental: Compounds according to the invention were experimentally assessed for their inhibitory effect on the IR-Grb14 interaction by a BRET technique in a cell-free system described briefly below.
On the one hand, HEK293T cells were transfected with a vector encoding the insulin receptor fused to the luciferase (IR-Luc). Before lysis, the cells transfected with IR-Luc were stimulated or not with 100 nM insulin for 10 minutes. The IR-Luc lysates were recovered and then purified on sepharose beads coupled with wheat germ lectin (WGL for Wheat Germ Lectin). The IR-Luc receptors were then eluted and then frozen in liquid nitrogen before being stored at −80° C. On the other hand, HEK293T cells were transfected either with a vector encoding the Grb14 protein fused to the YFP (Grb14-YFP), or with the empty plasmid pcDNA3. The cells transfected with Grb14-YFP or with the empty plasmid pcDNA3 were lysed 48 h after transfection. After centrifugation, the lysates are recovered and frozen at −80° C.
The insulin receptors (IR-Luc) partially purified from cells stimulated or not with insulin were incubated for 20 minutes with the inhibitor compounds according to the invention suspended in DMSO. The cellular extracts from cells transfected with Grb14-YFP (or the empty plasmid pcDNA3) were then added and then after 40 minutes of incubation, coelenterazine was added and BRET reading was initiated. The results are expressed as a percentage of the BRET signal obtained in the presence of the molecules tested compared to the BRET signal of the DMSO control.

PI3K/Akt pathway = experiment: Luc-Akt-PH/YFP-membrane BRET in HEK293T cells (recruitment of Akt to the membrane); format: cell-based; conditions: for effect on the recruitment of kinase Akt to the membrane: in the absence of the hormone
Description: To measure the activity of the PI3-kinase pathway by the BRET technique, HEK293T cells are transfected with plasmids allowing, on the one hand, the expression of the PH (Pleckstrin Homology) domain of the Akt protein which has been fused to the luciferase and, on the other hand, a membrane-addressing sequence which has been fused to the YFP protein. When the PH domain of Akt is recruited to the membrane by the PIP3s, an energy transfer between the luciferase that is coupled to the PH domain of Akt and the membrane YFP protein takes place. The measured BRET signal is a control of the production of PIP3s at the membrane and is a reflection of the activation of the PI-3-kinase/Akt pathway in real time on cells.

[1] = tested on: PEPCK and G6Pase expression; experiment: Expression of neoglucogenesis genes in hepatocytes in primary culture (RT-qPCR); format: cell-based, mice; conditions: 1 nM insulin; glucagon 10 nM
Experimental: FIG. 6, the effect of the compound of Formula (Ia) according to the invention (black bars) on the expression of insulin target genes, PEPCK (FIG. 6A) and G6Pase (FIG. 6B), involved in the neoglucogenesis pathway. Hepatocytes in primary culture are cultured for 8 h in the presence of compounds of Formula (Ia) (50 μM), insulin (1 nM) and glucagon (pre-incubation 1 h at 10 nM). The relative quantification of mRNAs is performed by RT-qPCR. The values are related to the quantification of the 18S gene in the same sample in order to normalize the results. The results are the average of 3 to 5 independent experiments (*p<0.05, **p<0.01, by Anova followed by a Newman-Keuls test).
To study the inhibitory effect of insulin on neoglucogenesis gene expression, hepatocytes from mice in primary culture were pre-incubated with 10 nM glucagon.

[2] = read-out: % BRET signal/DMSO control, 50 μM
[3] = in the presence of insulin (5 nM)

Row | Molecule | remaining activity at 50 µM (IR-Grb14 interaction; [2]) [%] | significant decrease in the BRET signal / reduction in the IR-Grb14 interaction (in words) (IR-Grb14 interaction; 50 μM) | % BRET signal/DMSO control (IR-Grb14 interaction; 50 μM) | further results
1 | CCOc1cc(C=C2C(=O)NC(=S)NC2=O)ccc1OCc1ccc(C(=O)O)cc1 [IIe] | 65 | – | – | BRET delta (PI3K/Akt pathway; without insulin): 96 (+/−50)
2 | CCc1ccc(/C=C/C(=O)Nc2ccc(S(=O)(=O)Nc3onc(C)c3C)cc2)o1 [Ib] | – | – | – | remaining activity at 50 µM (IR-Grb14 interaction; 50 μM, read-out: % BRET signal/DMSO control): 58%; BRET delta (PI3K/Akt pathway; without insulin): 119 (+/−26)
3 | COc1cc(C=C2C(=O)NC(=S)NC2=O)ccc1OCc1cccc(C(=O)O)c1 [IIc] | 75 | – | – | decrease in the BRET signal between the insulin receptor and the Grb14 protein (IR-Grb14 interaction; 50 μM, with insulin stimulation): 25%
4 | insulin | – | – | – | effect on the recruitment of the Akt protein to the membrane after AG1024 (PI3K/Akt pathway; cells pre-incubated 1 h with 25 μM AG1024, Ia 50 μM, insulin 5 nM): no longer have any effect; BRET delta (PI3K/Akt pathway; insulin 5 nM alone): about 100; inhibition of glucagon-induced G6Pase expression [1]: 60 to 70%; inhibition of glucagon-induced PEPCK expression [1]: 60 to 70%
5 | CCOc1ccc(/C=C2/C(=O)NC(=S)N(c3ccccc3)C2=O)cc1C(=O)O [IIf] | 65 | – | – | BRET delta (PI3K/Akt pathway; without insulin): 54 (+/−44)
6 | CCOc1cc(C=C2C(=O)NC(=O)NC2=O)ccc1OCc1cccc(C(=O)O)c1 [Comparative E] | – | do not allow for a significant decrease | 98% (+/−9%) | –
7 | CCOc1cc(C=C2C(=O)NC(=O)NC2=O)ccc1OCc1cccc(C(=O)O)c1 [Comparative A] | – | do not allow for a significant decrease | 103% (+/−15%) | –
8 | CCOc1cc(C=C2C(=O)NC(=O)NC2=O)ccc1OCc1cccc(C(=O)O)c1 [Comparative B] | – | do not allow for a significant decrease | 93% (+/−7%) | –
9 | O=C1NC(=S)NC(=O)C1=Cc1ccc(OCc2cccc(C(=O)O)c2)cc1 [IId] | 69 | – | – | BRET delta (PI3K/Akt pathway; without insulin): 67 (+/−33)
10 | CCOc1cc(C=C2C(=O)NC(=O)NC2=O)ccc1OCc1cccc(C(=O)O)c1 [Comparative F] | – | do not allow for a significant decrease | 93% (+/−24%) | –
11 | CC(C)(C)c1cc(C=C(C#N)C#N)cc(Br)c1O [AG1024, reference compound] | – | – | – | BRET signal after inhibition of tyrosine kinase activity of the insulin receptor (PI3K/Akt pathway; pre-incubation 1 h with 25 μM): very significant drop
12 | Cc1ccc(/C=C/C(=O)O)o1 [Comparative IVa, (E)-3-(5-methylfuran-2-yl)acrylic acid, reference compound] | 91 | do not allow for a reduction | – | effect on the recruitment of kinase Akt to the membrane (PI3K/Akt pathway): no effect; BRET delta (PI3K/Akt pathway; [3]): −61 (+/−35); reduction of the recruitment of the Akt protein to the membrane (PI3K/Akt pathway; [3]): about 50%
13 | Cc1noc(NS(=O)(=O)c2ccc(N)cc2)c1C [Comparative Va, 4-amino-N-(3,4-dimethyl-1,2-oxazol-5-yl)benzenesulfonamide, reference compound] | 98 | do not allow for a reduction | – | effect on the recruitment of kinase Akt to the membrane (PI3K/Akt pathway): no effect; BRET delta (PI3K/Akt pathway; [3]): −27 (+/−23); effect on the production of PIP3s at the membrane (PI3K/Akt pathway; [3]): no effect
14 | CCOc1cc(C=C2C(=O)NC(=O)NC2=O)ccc1OCc1cccc(C(=O)O)c1 [Comparative C] | – | do not allow for a significant decrease | 103% (+/−8%) | –
15 | CCOc1cc(C=C2C(=O)NC(=O)NC2=O)ccc1OCc1cccc(C(=O)O)c1 [Comparative D] | – | do not allow for a significant decrease | 121% (+/−8%) | –

Source: patent US11020378B2, “Compounds, compositions and methods for treating insulin resistance” (UNIVERSITE PARIS DESCARTES, priority 2017, dated 2021)
